Consider 13 molecules from patent publication US10786508B2, “Substituted imidazo[1,5-A]-pyrimidines and their use in the treatment of medical disorders” (Lysosomal Therapeutics Inc., priority 2014, dated 2020).

For series [1], the target named is T1, glucocerebrosidase (Gcase) (Homo sapiens, UniProt P04062).
T1 construct: micellar solution containing 10 nM GCase and 100 nM saposin C
T1 sequence (P04062 40-536): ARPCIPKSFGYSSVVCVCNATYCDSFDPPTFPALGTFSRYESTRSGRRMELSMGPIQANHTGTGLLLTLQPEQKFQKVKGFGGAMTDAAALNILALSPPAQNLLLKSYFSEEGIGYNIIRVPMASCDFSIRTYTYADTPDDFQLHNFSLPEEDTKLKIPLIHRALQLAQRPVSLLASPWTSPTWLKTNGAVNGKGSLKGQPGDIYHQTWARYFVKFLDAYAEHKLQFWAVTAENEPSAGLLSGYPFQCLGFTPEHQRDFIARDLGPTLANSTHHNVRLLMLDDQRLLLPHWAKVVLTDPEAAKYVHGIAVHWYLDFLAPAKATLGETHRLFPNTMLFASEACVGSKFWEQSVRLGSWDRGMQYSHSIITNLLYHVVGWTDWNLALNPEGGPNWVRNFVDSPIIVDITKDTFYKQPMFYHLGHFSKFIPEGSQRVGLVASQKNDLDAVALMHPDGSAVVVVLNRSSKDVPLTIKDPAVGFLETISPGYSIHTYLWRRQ
The experiment in a line: Glucocerebrosidase (Gcase) activation assay, 4-methylumbelliferyl-beta-D-glucopyranoside substrate, with saposin C. It counts as biochemical. The conditions noted are these: 10 nM GCase, 100 nM saposin C, pH 4.7; for activation at 0.1 µM: 0.1 μM test compound, read-out: Percent Gease Activation 0.1 μM Test Compound; for activation at 1 µM: 1 μM test compound, read-out: Percent Gease Activation 1 μM Test Compound. The method, then:
The ability of exemplary compounds to activate glucocerebrosidase (Gcase) was measured.
A 484 μL aliquot of a 1.0 mg/mL solution of phosphatidylserine (PS) (Sigma P7769) in chloroform was evaporated under a stream of nitrogen for 1 hour. The lipid film was dissolved over 4 minutes of vigorous vortexing in 40 mL of 176 mM K2HPO4/50 mM citric acid (pH 4.7) containing 7.5 μL of triton X-100, resulting in a mixed micellar preparation with a composition of 0.32 mM triton and 0.37 mol % PS. 4-Methylumbelliferyl-beta-D-glucopyranoside (ACROS-337025000) was dissolved in the micellar solution to a final concentration of 2 mM for use as the reaction substrate.
Test compounds were diluted to the desired concentrations with dimethylsulfoxide (DMSO) from 10 mM stocks, and 0.41 μL of the DMSO compound mixture was added to 100 μL of micellar solution containing 10 nM GCase and 100 nM saposin C (Enzo ALX-201-262-C050). Pre-incubation was allowed to occur for 30 minutes at room temperature, after which the reaction was initiated by combining 25 μL of substrate solution with 25 μL of compound/GCase/saposin mixture. The reaction proceeded for 15 minutes at room temperature and was stopped by adding 150 μL of 1M glycine, pH 12.5. The endpoint of the reaction was monitored by measuring fluorescence intensity (excitation: 365 nm; emission: 440 nm) on a SpectraMax i3 instrument (Molecular Devices). Test compounds were screened at 1.0 and 0.1 μM final concentration, and subsequent 8-point dose response curves were obtained using 3-fold dilutions from a maximum final concentration of 5 μM.
For experiments in which the test compound was used at a concentration of 1.0 μM, the symbol “+” indicates less than 30% Gcase activation; the symbol “++” indicates Gcase activation in the range of 30% up to 60%; and the symbol “+++” indicates Gcase activation greater than 60%. For experiments in which the test compound was used at a concentration of 0.1 μM, the symbol “*” indicates less than 10% Gcase activation; the symbol “**” indicates Gcase activation in the range of 10% up to 20%; and the symbol “***” indicates greater than 20% Gcase activation.

The nature of series [2]: Compound solubility in water. It is filed as physicochemical.

≈ marks a conversion by molar mass, not a printed value.

As to `Cc1cc(C)n2cnc(C(=O)N[C@@H](C)c3ccccc3F)c2n1` [III-74], in series [1], the activation at 0.1 µM is < 10% and the activation at 1 µM is < 30%. This molecule also showed a solubility in series [2] of 37.3 µg/mL (≈ 119 µM).

With `COc1ccccc1[C@H](C)NC(=O)c1ncn2c(C)cc(C)nc12` [III-75], in series [1], the activation at 0.1 µM is < 10% and the activation at 1 µM lay in the range of 30 to 60%. The solubility in series [2] came out at 22.6 µg/mL (≈ 69.7 µM).

For `COc1ccccc1[C@@H](C)NC(=O)c1ncn2c(C)cc(C)nc12` [III-76], in series [1], the activation at 0.1 µM was < 10% and the activation at 1 µM was 30 to 60%. Further, the solubility in series [2] stood at 23 µg/mL (≈ 70.9 µM).

Consider `Cc1cc(C)n2cnc(C(=O)N[C@@H](C)c3cccc(Cl)c3)c2n1` [III-77], for which, in series [1], the activation at 0.1 µM was < 10% and the activation at 1 µM is 30 to 60%. The solubility in series [2] was 26 µg/mL (≈ 79.1 µM).

Consider `CCC(NC(=O)c1ncn2c(C)cc(C)nc12)c1ccc(F)cc1` (stereo not drawn) [III-78], for which, in series [1], the activation at 0.1 µM was < 10% and the activation at 1 µM lay within 30 to 60%. In series [2], this molecule registered a solubility of 39.5 µg/mL (≈ 121 µM).

On to `COc1ccc(F)cc1C(C)NC(=O)c1ncn2c(C)cc(C)nc12` (stereo not drawn) [III-79], for which, in series [1], the activation at 0.1 µM is < 10% and the activation at 1 µM was in the range of 30 to 60%. The solubility in series [2] stood at 32 µg/mL (≈ 93.5 µM).

Turning to `CCOc1ccc(C(C)NC(=O)c2ncn3c(C)cc(C)nc23)cc1` (stereo not drawn) [III-80], in series [1], the activation at 0.1 µM is < 10% and the activation at 1 µM was < 30%. Besides, the solubility in series [2] came to 25.9 µg/mL (≈ 76.5 µM).

Consider `CCC(NC(=O)c1ncn2c(C)cc(C)nc12)c1cccc(Cl)c1` (stereo not drawn) [III-81], for which, in series [1], the activation at 0.1 µM was in the range of 10 to 20% and the activation at 1 µM was > 60%. Moreover, the concentration in solution in series [2] (solubility) came to 20.3 µg/mL (≈ 59.2 µM).

As for `Cc1cc(C)n2cnc(C(=O)NC(C)(C)c3cccc(Cl)c3)c2n1` [III-82], in series [1], the activation at 0.1 µM was < 10% and the activation at 1 µM was > 60%. For the same molecule, in series [2], the solubility came out at 14.8 µg/mL (≈ 43.2 µM).

Consider `Cc1cc(C)n2cnc(C(=O)N[C@H](C)c3ccc(Cl)cc3)c2n1` [III-83], for which, in series [1], the activation at 0.1 µM was < 10% and the activation at 1 µM is 30 to 60%. Also, the solubility in series [2] is 16.5 µg/mL (≈ 50.2 µM).

In the case of `CCCCO[C@H]1C[C@H]2CC[C@@H](C1)[C@H]2NC(=O)c1ncn2c(C)cc(C)nc12` [III-84], in series [1], the activation at 0.1 µM is > 20% and the activation at 1 µM was > 60%. The solubility in series [2] came out at 0.2 µg/mL (≈ 0.54 µM).

Consider `CCCCO[C@H]1[C@@H]2CC[C@H]1C[C@@H](NC(=O)c1ncn3c(C)cc(C)nc13)C2` [III-85], for which, in series [1], the activation at 0.1 µM was < 10% and the activation at 1 µM is > 60%. This molecule showed a solubility in series [2] of 13.1 µg/mL (≈ 35.4 µM).

`CCCCO[C@@H]1[C@@H]2CC[C@H]1C[C@@H](NC(=O)c1ncn3c(C)cc(C)nc13)C2` [III-86]: in series [1], the activation at 0.1 µM was in the range of 10 to 20% and the activation at 1 µM was > 60%. In addition, in series [2], the concentration in solution (solubility) was 14.6 µg/mL (≈ 39.4 µM).

For orientation: solubility means the dissolved amount per volume that the medium holds. Low readings indicate a poorly soluble substance, high ones a readily soluble substance.
